Data published in US11510957B2, “Method for treating or alleviating autoimmune-related diseases” (priority 2016, dated 2022).

Experiments:
[1] = tested on: TNF-α secretion in LPS-induced acute inflammatory mice; assay: TNF-α secretion in LPS-induced acute inflammatory BALB/c mouse model, plasma ELISA; type: in vivo; conditions: FIG. 5B
Method: The 6-8 weeks BALB/c male mice were purchased from BioLASCO Taiwan Co., Ltd. In addition to make the feeding condition meeting with national experimental animal guidelines, the batch of mice were marked, sub-cage and weighing soon after acquisition. Then, these mice were placed to the quarantine room of general area for a week of quarantine work. During the quarantine period, observation of mobility and environmental adaptability was performed, and after assessment to be normal, these mice were transferred into the feeding area for experimental implementation. […]
Then the mice were fasted for 2 to 4 hours but regular drinking water was still supplied. […] After administration, the clinical symptoms of the mice were observed and recorded. […] After administration, the clinical symptoms of the mice were observed and recorded.
After 1.5 hours LPS stimulation, the mice were euthanized by excessive CO2 and the whole blood was collected by cardiac puncture blood sampling. Next, the plasma was collected after centrifugation at 6000 rpm and 4° C. for 10 minutes and then TNF-α secretion were analyzed.
The TNF-α secretion in plasma was analyzed according to the following procedure shown in Duoset® ELISA kit. […] Finally, 50 μl of Stop Solution (1N HCl) was added to each well to stop the color reaction, and the absorbance of OD450 nm was measured.

[2] = tested on: IMQ-induced psoriasis-like dermatitis in BALB/c mice; assay: Imiquimod (IMQ)-induced psoriasis-like dermatitis mouse model, skin irritation score; type: in vivo; conditions: 100 mg/kg; 6 days; FIG. 5D
Method: The 8 weeks BALB/c male mice were purchased from BioLASCO Taiwan Co., Ltd. After acclimation and quarantine, the batch of mice were approximately 9-10 weeks of age at the time of performing the experiment of IMQ-induced psoriasis-like dermatitis. The experimental animals were bred in the environment: 12 hours light and 12 hours dark, room temperature of 23±2° C., and relative humidity of 40-70%. During feeding, animals were free to obtain adequate food and drinking water. In addition, during the quarantine and testing period, the animals were observed and recorded by the veterinarian and the experimental staff of ITRI to ensure health of these experimental animals.
Then, the hair on the back of each mouse was shaved, and the shaving area was about 4*2 cm^2. Since day 0, 3.125 mg imiquimod (IMQ) was administered by smearing to the skin of shaved area of each mouse daily for consecutive 6 days. […]
The above-mentioned degree of skin irritation is based on Psoriasis Area and Severity Index (PAST), in which erythema, thickening, and scaling of skin were assessed and analyzed for judging the scale. […]
The mean value and standard error of mean (S.E.M.) of each group were calculated by accumulating the index observed in the same mouse, and t-test statistics was used to distinguish the differences between the groups.

[3] = tested on: IL-17 secretion in EL4 murine lymphoma cells; assay: Anti-IL-17 secretion in EL4 (murine lymphoma) cells induced with PMA and Ionomycin, ELISA; type: cell-based; conditions: PMA 10 ng/ml + Ionomycin 5 ng/ml, 18 hours
Method: EL4 cell line is murine lymphoma cell purchased from Bioresource Collection and Research Center (referred to as BCRC) and cultured in RPMI 1640 medium which contains 10% Fetal Bovine Serum (referred to as FBS), 1.5 g Sodium bicarbonate, 1 mM Sodium pyruvate, lx non-essential amino acids (referred to as NEAA), and 0.5 mM 2-Mecaptoethanol (referred to as 2-ME).
EL4 lymphoma cells were seeded into 96-well plate by 1×10^5 cells per well and 10 μl of the extract of A. tsao-ko HE-06 was added to each well and incubated at 37° C. in 5% CO2 cell incubator for 1 hour. Then, Phorbol-12-myristate-13-acetate (referred to as PMA or TPA) and Ionomycin were added to be the stimulants that induce activation of lymphoma cells, in which the final concentration of PMA was 10 ng/ml and the final concentration of Ionomycin was 5 ng/ml, and additional 18 hours incubation was executed. In the above test, the group of adding both PMA (final concentration of 10 ng/ml) and Ionomycin (final concentration of 5 ng/ml) was considered as the control group.
Thereafter, the cell-containing 96-well plate was centrifuged at 1200 rpm for 5 minutes and the supernatant was collected and transferred to the new 96-well plate. […] 150 μl DMSO was then added to dissolve the […] and the absorbance of 570 nm was measured to assess the cell viability. […]

EAE in C57BL/6 mice = assay: Experimental autoimmune encephalomyelitis (EAE) mouse model, clinical EAE score; type: in vivo; conditions: 30 mg/kg and 100 mg/kg; 14 days
Method: The experimental animals, female C57BL/6 mice, aged about 8 weeks, were purchased from National Laboratory Animal Center (Tainan). After acclimation and quarantine, the mice were approximately 10-12 weeks of age at the time of performing the EAE experiments. The experimental animals were bred in the environment: 12 hours light and 12 hours dark, room temperature of 23±2° C., and relative humidity of 40-70%. During feeding, animals were free to obtain adequate food and drinking water, but after the onset of EAE, the soaked soft feed and agar gel jelly were especially given in the bottom of the feeding cage, so that the onset animals were easier to feed and drink. In addition, during the quarantine and testing period, the animals were observed and recorded by the veterinarian and the experimental staff of ITRI to ensure health of these experimental animals.
The foregoing C57BL/6 mice were administered subcutaneously with 200 μl emulsion including 200 μg MOG35-55 peptide and 400 μg Mycobacterium tuberculosis H37Ra, followed by intraperitoneal injection of 500 ng pertussis toxin for induction of EAE. From the 7th day after induction, the EAE clinical symptoms were recorded daily according to the recognized Ataxia score (grading of nervous system disorder) and EAE score as the scoring criteria (description of Ataxia score and EAE score are as follows). […]

How did the “inhibition of TNF-α secretion (in words)” value [1] turn out when `O=CC1=CC[C@H](O)[C@@H]2CCC[C@H]12` [Tsaokoin (TK), tsaokoin] was run?
Its value is “significantly inhibit the secretion of TNF-α”.

And the “clinical symptoms of IMQ-induced psoriasis-like dermatitis” value [2]?
Its value is “significantly alleviate the clinical symptoms of IMQ-induced psoriasis-like dermatitis”.

What about the “IC50, concentration causing 50% IL-17 secretion inhibition, EL4” value [3] of the same compound?
The value was 12.1 µg/mL.

And the “effect on progress of EAE (EAE score)” value (EAE in C57BL/6 mice)?
Its value is “slow down the progress of EAE, and present a dose-dependent effect”.
